For orientation: IC50 means the midpoint of a concentration-inhibition curve.

We go through 18 compounds from patent publication US11370763B2, “Compounds and compositions for treating conditions associated with NLRP activity” (Novartis AG, priority 2017, dated 2022).

This test relates to IL-1β production in PMA-differentiated THP-1 cells. Nature of the test: IL-1β production in PMA-differentiated THP-1 cells stimulated with gramicidin (hTHP-1 assay containing 2% fetal bovine serum; Procedures 1-3). It counts as cell-based, human. As to conditions: Homo sapiens, THP-1, hTHP-1 assay containing 2% fetal bovine serum; class symbols; read-out: hTHP-1 IC50 (Average IC50 of compounds in hTHP-1 assay). A digest of the protocol: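 THP-1 cells differentiated with PMA (20 ng/ml, 16-18 h), replated in 2% FBS RPMI (50,000 cells/well), preincubated 1 h with compound (top final 100 μM, 3-fold steps, 0.37% DMSO), then stimulated 2 h with gramicidin (5 μM). Supernatant IL-1β measured by HTRF.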

With `CC(C)c1cc(COC2CCCC2)cc(C(C)C)c1CC(=O)N=S(N)(=O)c1cnc(C(C)(C)O)s1` (stereo not drawn) [Example 141, N-(amino(2-(2-hydroxypropan-2-yl)thiazol-5-yl)(oxo)-λ^6-sulfaneylidene)-2-(4-((cyclopentyloxy)methyl)-2,6-diisopropylphenyl)acetamide], the IC50 lay within 40 to 200 nM.
As for `CC(C)c1cc2c(c(C(C)C)c1CC(=O)N=S(N)(=O)c1cnc(C(C)(C)O)s1)CCC2` (stereo not drawn) [Example 142, N-(amino(2-(2-hydroxypropan-2-yl)thiazol-5-yl)(oxo)-λ^6-sulfaneylidene)-2-(4,6-diisopropyl-2,3-dihydro-1H-inden-5-yl)acetamide], the figure is 1000 to 5000 nM; as for `COc1cc(C(C)C)c(CC(=O)NS(=O)(=O)c2ncc(C(C)(C)O)s2)c(C(C)C)n1` [Example 143, 2-(2,4-diisopropyl-6-methoxypyridin-3-yl)-N-((5-(2-hydroxypropan-2-yl)thiazol-2-yl)sulfonyl)acetamide], 1000 to 5000 nM.
With `CC(C)c1ncc(F)c(C(C)C)c1CC(=O)N=S(N)(=O)c1ncc(C(C)(C)O)s1` (stereo not drawn) [Example 144, N-(amino(5-(2-hydroxypropan-2-yl)thiazol-2-yl)(oxo)-λ^6-sulfaneylidene)-2-(5-fluoro-2,4-diisopropylpyridin-3-yl)acetamide], the IC50 fell in the range of 5000 to 30000 nM.
Consider `CC(C)c1ncc(F)c(C(C)C)c1CC(=O)N=S(N)(=O)c1cc(C(C)(C)O)cs1` (stereo not drawn) [Example 145, N-(amino(4-(2-hydroxypropan-2-yl)thiophen-2-yl)(oxo)-λ^6-sulfaneylidene)-2-(5-fluoro-2,4-diisopropylpyridin-3-yl)acetamide], for which the concentration for half-maximal inhibition (IC50) was in the range of 200 to 1000 nM.
To `CC(C)c1ncc(F)c(C(C)C)c1CC(=O)N=S(N)(=O)c1cnc(C(C)(C)O)s1` (stereo not drawn) [Example 146, N-(amino(2-(2-hydroxypropan-2-yl)thiazol-5-yl)(oxo)-λ^6-sulfaneylidene)-2-(5-fluoro-2,4-diisopropylpyridin-3-yl)acetamide] belongs 5000 to 30000 nM; to `CC(C)c1ncc(F)c(C(C)C)c1CC(=O)N=S(N)(=O)c1nc(C(C)(C)O)cs1` (stereo not drawn) [Example 147, N-(amino(4-(2-hydroxypropan-2-yl)thiazol-2-yl)(oxo)-λ^6-sulfaneylidene)-2-(5-fluoro-2,4-diisopropylpyridin-3-yl)acetamide], 1000 to 5000 nM.
As for `CC(C)c1ncc(F)c(C(C)C)c1CC(=O)N=S(N)(=O)c1ccn(C(C)C)n1` (stereo not drawn) [Example 148, N-(amino(1-isopropyl-1H-pyrazol-3-yl)(oxo)-λ^6-sulfaneylidene)-2-(5-fluoro-2,4-diisopropylpyridin-3-yl)acetamide], the half-maximal inhibitory concentration (IC50) lay within 5000 to 30000 nM.
To `CC(C)c1ncc(F)c(C(C)C)c1CC(=O)N=S(N)(=O)c1sc(C(C)(C)O)cc1F` (stereo not drawn) [Example 149, N-(amino(3-fluoro-5-(2-hydroxypropan-2-yl)thiophen-2-yl)(oxo)-λ^6-sulfaneylidene)-2-(5-fluoro-2,4-diisopropylpyridin-3-yl)acetamide] belongs 200 to 1000 nM.
For `Cc1ncc(C(C)C)c(CC(=O)N=S(N)(=O)c2sc(C(C)(C)O)cc2F)c1C(C)C` (stereo not drawn) [Example 150, N-(amino(3-fluoro-5-(2-hydroxypropan-2-yl)thiophen-2-yl)(oxo)-λ^6-sulfaneylidene)-2-(3,5-diisopropyl-2-methylpyridin-4-yl)acetamide], the half-inhibitory concentration (IC50) fell in the range of 5000 to 30000 nM.
As to `CC(C)c1cc(C#N)nc(C(C)C)c1CC(=O)N=S(N)(=O)c1cc(C(C)(C)O)cs1` (stereo not drawn) [Example 151, N-(amino(4-(2-hydroxypropan-2-yl)thiophen-2-yl)(oxo)-λ^6-sulfaneylidene)-2-(6-cyano-2,4-diisopropylpyridin-3-yl)acetamide], the IC50 fell in the range of 200 to 1000 nM.
`COCc1cc(C(C)C)c(CC(=O)N=S(N)(=O)c2cc(C(C)(C)O)cs2)c(C(C)C)n1` (stereo not drawn) [Example 152, N-(amino(4-(2-hydroxypropan-2-yl)thiophen-2-yl)(oxo)-λ^6-sulfaneylidene)-2-(2,4-diisopropyl-6-(methoxymethyl)pyridin-3-yl)acetamide]: the concentration for half-maximal inhibition (IC50) fell in the range of 200 to 1000 nM.
As for `CC(C)c1nc(C(F)(F)F)nc(C(C)C)c1CC(=O)N=S(N)(=O)c1cnc(C(C)(C)O)s1` (stereo not drawn) [Example 153, N-(amino(2-(2-hydroxypropan-2-yl)thiazol-5-yl)(oxo)-λ^6-sulfaneylidene)-2-(4,6-diisopropyl-2-(trifluoromethyl)pyrimidin-5-yl)acetamide], the figure is 1000 to 5000 nM.
In the case of `CC(C)c1cnc(F)c(C(C)C)c1CC(=O)N=S(N)(=O)c1cnc(C(C)(C)O)s1` (stereo not drawn) [Example 154, N-(amino(2-(2-hydroxypropan-2-yl)thiazol-5-yl)(oxo)-λ^6-sulfaneylidene)-2-(2-fluoro-3,5-diisopropylpyridin-4-yl)acetamide], the IC50 is 5000 to 30000 nM.
Regarding `CC(C)c1cc2c(c(C(C)C)c1CC(=O)N=S(N)(=O)c1cc(C(C)(C)O)cs1)COC2` (stereo not drawn) [Example 220, N-(amino(4-(2-hydroxypropan-2-yl)thiophen-2-yl)(oxo)-λ^6-sulfaneylidene)-2-(4,6-diisopropyl-1,3-dihydroisobenzofuran-5-yl)acetamide], the IC50 fell in the range of 40 to 200 nM.
Take `CC(C)c1cc2c(c(C(C)C)c1CC(=O)N=S(N)(=O)c1ccn(C(C)C)n1)COC2` (stereo not drawn) [Example 221, N-(amino(1-isopropyl-1H-pyrazol-3-yl)(oxo)-λ^6-sulfaneylidene)-2-(4,6-diisopropyl-1,3-dihydroisobenzofuran-5-yl)acetamide]: the half-maximal inhibitory concentration (IC50) lay in the range of 5000 to 30000 nM.
Take `CC(C)c1cc(C#N)c(F)c(C(C)C)c1CC(=O)N=S(N)(=O)c1ncc(C(C)(C)O)s1` (stereo not drawn) [compound 13, 2-(4-cyano-3-fluoro-2,6-diisopropylphenyl)-N-(5-(2-hydroxypropan-2-yl)thiazol-2-ylsulfonimidoyl)acetamide]: the IC50 lay within 200 to 1000 nM.
On to `COc1ccc(CNS(=O)(=NC(=O)Cc2c(C(C)C)cc(F)cc2C(C)C)c2ncc(C(C)(C)O)s2)cc1` (stereo not drawn) [compound 41, 2-(4-fluoro-2,6-diisopropylphenyl)-N-(5-(2-hydroxypropan-2-yl)-N-(4-methoxybenzyl)thiazole-2-sulfonimidoyl)acetamide], for which the IC50 fell in the range of 5000 to 30000 nM.
